This is an account of results in US10273220B2, “Derivative of Inula lineariifolia lactone A” (SHANXI ZHENDONG LEADING BIOTECHNOLOGY CO., LTD., priority 2015, dated 2019).

Each structure is given as a SMILES string. Where a name gives a salt, the structure may show the parent alone.

One series deals with Mice. Put plainly: Single-dose toxicity in mice. Conditions: for deaths: three males and three females. The format is in vivo. The method, then: Mice were divided into four groups for each having three males and three females and treated by compound 1 at a single-dose of 200, 600, 1800 and 5400 mg/kg, respectively.
Series [1] deals with experimental autoimmune encephalomyelitis (EAE) model. Put plainly: Pharmacodynamics on EAE model (MOG 35-55 induced), EAE score and H&E/LFB staining of cervical spinal cord. It counts as in vivo, C57BL/6 mice. Conditions: for incidence of EAE: intragastric administration (FIG. 5, FIG. 6).
In the next series the test system is Sprague Dawley rats. Put plainly: 7-day repeated intragastric toxicity in rats. It counts as in vivo. As to conditions: intragastrically daily at 75, 150, 300 mg/kg for 7 consecutive days, 3 males and 3 females per group. On the procedure:
Sprague Dawley rats, each group having 3 males and 3 females were administrated intragastrically daily at 75, 150, 300 mg/kg respectively for 7 consecutive days.

Series [2] has as its system experimental autoimmune encephalomyelitis (EAE) model. Conditions: mice; cited from earlier work.
Series [3] can be described thus: Bioavailability by oral administration. The format is in vivo.
The mark [4] stands for this setting: 30 mg/kg/day intragastrically, vs EAE model group.
[5] abbreviates: crystal type A, 15 mg/kg once daily oral gavage, vs EAE model group.

Take `CC(=O)O[C@H]1C[C@H](OC(C)=O)[C@]2(C)[C@@H]1[C@H](C)C[C@@H]1OC(=O)[C@H](CN(C)C)[C@H]1[C@@H]2OC(C)=O` [Compound I, dimethylamine 4-O-acetyl inula lineariifolia lactone A]: the deaths entry in the series with Mice (single dose 1800 mg/kg) was “One female mouse died”. For the same molecule, the deaths entry in the series with Mice (single dose 5400 mg/kg) is “Five mice except one male mouse died”. For the same molecule, the toxic reactions entry in the series on Mice (single dose 200 and 600 mg/kg, three males and three females per group) is reported as “No obvious toxic reactions were observed”. Besides, in series [1] (30 mg/kg), the “course of EAE” value was “ameliorated”. For the same molecule, the “disease severity (EAE score)” value in series [1] (30 mg/kg/day intragastrically, from day 0 of immunization, 30 days) is “reduced”. Besides, the “onset of EAE” value in series [1] (30 mg/kg/day intragastrically, from day 0 of immunization, 30 days, in 0.5% CMC-Na) is recorded as “delayed”. In series [1] (setting [4]), the “arrangement of the organization (blood vessel and tissue)” value is “basically returned to normal condition”; the “demyelination (LFB staining)” value is “significantly reduced”; the “inflammatory cells (H&E analysis)” value is “reduced”. Besides, the “incidence of EAE” value in series [1] is on record as “significantly reduce”.

For the molecule `CC(=O)O[C@H]1C[C@H](OC(C)=O)[C@]2(C)[C@@H]1[C@H](C)C[C@@H]1OC(=O)[C@H](CN(C)C)[C@H]1[C@@H]2OC(C)=O` [Compound IV, dimethylamine 4-O-acetyl inula lineariifolia lactone A fumarate], the toxic reactions result in the series on Sprague Dawley rats was “No obvious toxic reactions were observed”. Besides, the “onset of EAE” value in series [1] (crystal type A in injection water, 15 mg/kg once daily oral gavage from day 0) is given as “delayed”. Also, the “course of EAE” value in series [1] (crystal type A, 15 mg/kg once daily oral gavage) is given as “ameliorated”. The “disease severity (EAE score)” value in series [1] (crystal type A, 15 mg/kg once daily oral gavage from day 0) is recorded as “reduced”. In series [1] (crystal type A, 15 mg/kg once daily oral gavage, vs EAE model control), the “demyelination (LFB staining)” value is “significant lower”. Moreover, in series [1] (setting [5]), the “arrangement of the organization (blood vessel and tissue)” value is “basically returned to normal condition”; the “inflammatory cells (H&E analysis)” value is listed as “reducing”. Further, the “incidence of EAE” value in series [1] is given as “significantly reduce”.

For the molecule `C=C1C(=O)O[C@H]2C[C@@H](C)[C@@H]3[C@@H](OC(C)=O)C[C@H](O)[C@@]3(C)[C@@H](OC(C)=O)[C@H]12` [Inula lineariifolia lactone A], the “therapeutic effect on EAE model” value in series [2] was “good therapeutic effect”. In addition, the “bioavailability by oral administration” value in series [3] is reported as “low”.
